Data reported in patent publication US8242105B2, “Structural mimetics of proline-rich peptides and the pharmaceutical use thereof” (priority 2006, dated 2012).
No end group written: not given here.

Key:
VASP/EVH1 domain [1] = biological target: T1, VASP/EVH1 domain (Homo sapiens, UniProt P50552); test: Fluorescence titration of ligand peptides; format: binding
T1 construct: the EVH1 domain of a completely ^15N-labelled VASP protein
Method: Using the synthetic compound 85, ligand peptides with partially or completely replaced proline sequences were synthesized and investigated for their interaction with the EVH1 domain (pp=building block 85). […] The binding affinities were determined using NMR titration, the kinetic Biacore method, or by means of fluorescence titration.

VASP/EVH1 domain [2] = biological target: T1, VASP/EVH1 domain; test: NMR titration (15N-1H-HSQC) of the VASP/EVH1 domain with ligand peptide; settings: Binding affinity (NMR), VASP/EVH1 domain in solution; KD from change in chemical shift versus ligand peptide concentration
Method: The interactions between the EVH1 domain of a completely ^15N-labelled VASP protein and the ligand peptides I and II was elucidated using multidimensional NMR-spectroscopic methods. To this end, the EVH1 domain in a solution was titrated with varying amounts of ligand peptide and investigated by recording ^15N-^1H-HSQC-NMR spectra each time. In the event of positive binding interaction, increasing the ligand concentration step by step (10, 20, 50, 100, 200, 500 and 1000 μM) results in a clearly recognizable shift of some domain signals, which can be used to calculate values for the binding constant at a later point in time.
A continuous equilibrium, i.e. [EVH1]-ligand (bound) ? [EVH1]+ligand (unbound), is present in solution so that, depending on the rate of interchange of the ligands, different NMR spectra are obtained (in analogy to the signals of —OH and —NH in the one-dimensional range).
When correlating the changes in the chemical shift of the cross-peaks with the binding strength between domain and ligand peptide, it is possible to calculate values for the binding constant by plotting the change in shift Δδ versus the ligand peptide concentration.

VASP/EVH1 domain [3] = biological target: T1, VASP/EVH1 domain; test: Biacore (surface plasmon resonance) binding of ligand peptides; settings: Binding affinity (Biacore), initial measurements yet remaining to be verified
Text: In this method the domain protein is immobilized on the surface of a sensor chip, while a solution of ligand peptide flows across the surface. By measuring the surface plasmon resonance that causes the refractive index to change, it is possible to monitor the binding kinetics in real-time so that the association and dissociation constants can also be determined.

VASP/EVH1 domain [4] = biological target: T1, VASP/EVH1 domain; format: binding
Text: This can be seen in FIG. 2 wherein the class I EVH1 domain of the human VASP protein was investigated together with a short section from the ActA peptide (332[sequence]344).
(§1) Using a series of different test ligand peptides, it was also possible to gain an overview over the binding affinities.

Mena/EVH1 domain = Mena/EVH1 domain (Homo sapiens, UniProt Q8N8S7); test: biochemical
Sequence of Mena/EVH1 domain (Q8N8S7 1-111 limits assumed): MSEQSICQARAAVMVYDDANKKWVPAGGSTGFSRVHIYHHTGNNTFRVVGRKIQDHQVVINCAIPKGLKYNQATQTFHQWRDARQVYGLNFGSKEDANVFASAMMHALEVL
Text: as §1

T1 sequence (P50552 2-113): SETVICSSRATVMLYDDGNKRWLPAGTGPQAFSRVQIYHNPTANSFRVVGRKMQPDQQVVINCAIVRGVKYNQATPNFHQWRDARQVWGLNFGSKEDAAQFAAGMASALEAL

| Compound | Kd (VASP/EVH1 domain [1]) | further results |
| --- | --- | --- |
| CC(C)C[C@H](NC(=O)[C@H](CCC(=O)O)NC(=O)[C@H](CC(=O)O)NC(=O)[C@H](CCC(=O)O)NC(=O)[C@@H](NC(=O)[C@@H]1CC[C@@H]2C=C[C@H]3CCN(C(=O)[C@@H]4CCCN4C(=O)[C@@H]4CCCN4C(=O)[C@H](Cc4ccccc4)NC(=O)[C@H](CCC(=O)O)NC(=O)[C@H](Cc4ccccc4)NC(=O)[C@@H](N)CO)[C@@H]3C(=O)N21)[C@@H](C)O)C(=O)O [SFEFPPppTEDEL] | 26 ± 5 µM |  |
| CC(C)C[C@H](NC(=O)[C@H](CCC(=O)O)NC(=O)[C@H](CC(=O)O)NC(=O)[C@H](CCC(=O)O)NC(=O)[C@@H](NC(=O)[C@@H]1CCCN1C(=O)[C@@H]1CC[C@@H]2C=C[C@H]3CCN(C(=O)[C@@H]4CCCN4C(=O)[C@H](Cc4ccccc4)NC(=O)[C@H](CCC(=O)O)NC(=O)[C@H](Cc4ccccc4)NC(=O)[C@@H](N)CO)[C@@H]3C(=O)N21)[C@@H](C)O)C(=O)O [SFEFPppPTEDEL] | 47 ± 14 µM | Kd (VASP/EVH1 domain [2]): 20 to 35 µM; Kd (VASP/EVH1 domain [3]): 29.3 to 33.3 µM |
| CC(C)C[C@H](NC(=O)[C@H](CCC(=O)O)NC(=O)[C@H](CC(=O)O)NC(=O)[C@H](CCC(=O)O)NC(=O)[C@@H](NC(=O)[C@@H]1CCCN1C(=O)[C@@H]1CCCN1C(=O)[C@@H]1CC[C@@H]2C=C[C@H]3CCN(C(=O)[C@H](Cc4ccccc4)NC(=O)[C@H](CCC(=O)O)NC(=O)[C@H](Cc4ccccc4)NC(=O)[C@@H](N)CO)[C@@H]3C(=O)N21)[C@@H](C)O)C(=O)O [SFEFppPPTEDEL] | 82 ± 30 µM |  |
| CC(C)C[C@H](NC(=O)[C@H](CCC(=O)O)NC(=O)[C@H](CC(=O)O)NC(=O)[C@H](CCC(=O)O)NC(=O)[C@@H](NC(=O)[C@@H]1CC[C@@H]2C=C[C@H]3CCN(C(=O)[C@@H]4CC[C@@H]5C=C[C@H]6CCN(C(=O)[C@H](Cc7ccccc7)NC(=O)[C@H](CCC(=O)O)NC(=O)[C@H](Cc7ccccc7)NC(=O)[C@@H](N)CO)[C@@H]6C(=O)N54)[C@@H]3C(=O)N21)[C@@H](C)O)C(=O)O [SFEFppppTEDEL] | 45 ± 15 µM |  |
| FPPPPT [FPPPPT] |  | binding affinity KD (VASP/EVH1 domain [4]): no measurable affinity; Kd (Mena/EVH1 domain): 417 µM |
